Results from patent US20050250799A1, “Protease inhibitors for treatment of wrinkles” (priority 2004, published 2005).

Columns and labels:
[1] = tested on: UVB-induced wrinkle formation; test: Example 3: UVB-induced skin wrinkling; assay type: in vivo, hairless Skh-1 mice; settings: 100 μl on back skin three times weekly, 10 weeks, category 0 (no wrinkle) to 4 (severe wrinkle)
Method: Five groups of mice (7-week-old female hairless Skh-1 mice, n=3/group) were used: group 1: UVB+1% ucf-101 in DMSO; group 2: UVB+DMSO control; group 3: UVB+0.1% ucf-101 in acetone; group 4: UVB+acetone control; group 5: no UVB control.
Groups 1, 2, 3 and 4 were exposed to UVB irradiation using fluorescent lamps (Southern New England Ultraviolet) to deliver 0.35 mW/cm^2 at the dorsal skin surface of the mice. After irradiation, the indicated samples (100 μl each) for each group were applied to the back skin. This procedure was repeated three times weekly for ten weeks, to simulate chronic UVB exposure. […] The total cumulative dose was 6.54 J/cm^2 UVB.
After 10 weeks, skin wrinkling was evaluated using five categories (0: no wrinkle; 1: slight wrinkle; 2: clear wrinkle; 3: strong wrinkle; 4: severe wrinkle). Mice of group 1 and group 2 were sacrificed and back skin samples were snap-frozen in liquid nitrogen. Immunohistochemical staining was performed on 7-micrometer frozen sections using a monoclonal rat anti-mouse CD31 antibody (BD Pharmingen). Representative sections were obtained from UVB irradiated mice and were analyzed using a Nikon E-600 microscope. Images were captured with a Spot digital camera (Diagnostic Instruments), and morphometric analyses were performed using the IP-LAB software. Areas occupied by blood vessels were determined in the dermis.

UVB-irradiated mice ears = test: Example 2: ear thickness on UVB-exposed skin; assay type: in vivo, mice (Swiss Webster strain); settings: 1% in DMSO; for Left ear thickness (mean): UVB 80 mJ/cm^2, 5 μl on days 0, 1, 2
Method: The ear thickness of mice (Swiss Webster strain, male, 7 weeks of age, n=3/group) was measured with a thickness gauge (Mitsutoyo Corp.) on day 0. After measuring the thickness of both ears, both ears were UVB-irradiated (80 mJ/cm^2). 5 μl of 1% ucf-101 in DMSO was applied to the left ear and 5 μl of DMSO was applied to the right ear. After 24 hours (day 1), ear thickness was measured and a second dose administered (left ear 1% ucf-101 in DMSO; right ear: DMSO). After a second 24 hours (day 2), ear thickness was again measured and a third dose administered (left ear 1% ucf-101 in DMSO; right ear: DMSO). Ear thickness was then monitored over four additional consecutive days (days 3-6).

O=C1C(=Cc2ccc(-c3ccccc3[N+](=O)[O-])o2)C(=O)N(c2ccccc2)C(=S)N1c1ccccc1 [Ucf-101]
Wrinkle category (mean) ([1]; UVB + 0.1% in acetone): 1.67
Wrinkle category (mean) ([1]; UVB + 1% in DMSO): 1.33
Left ear thickness (mean) (UVB-irradiated mice ears; day 0 (before UVB and application)): 31.0 ×0.01 mm
Left ear thickness (mean) (UVB-irradiated mice ears; day 1): 36.3 ×0.01 mm
Left ear thickness (mean) (UVB-irradiated mice ears; day 2): 40.0 ×0.01 mm
Left ear thickness (mean) (UVB-irradiated mice ears; day 3): 42.3 ×0.01 mm
Left ear thickness (mean) (UVB-irradiated mice ears; day 4): 42.7 ×0.01 mm
Left ear thickness (mean) (UVB-irradiated mice ears; day 5): 39.3 ×0.01 mm
Left ear thickness (mean) (UVB-irradiated mice ears; day 6): 38.3 ×0.01 mm
ear thickness (irritancy) compared to control (UVB-irradiated mice ears; UVB-exposed ears): did not increase ear thickness
